Our source for the IC50 and melting point values is patent publication US20050256184A1, “1,2,4-Trioxanes and 1,2,4-trioxepanes” (priority 2004, published 2005).

Each structure is given as a SMILES string.

The test system of one data set is K1 Plasmodium falciparum. In words: In vitro antimalarial activity, 48-h [3H]-hypoxanthine incorporation sensitivity assay. In kind it is cell-based. The conditions noted are these: Erythrocyte, K1 strain (chloroquine resistant) of Plasmodium falciparum in human erythrocytes, triplicate, read-out: IC50. As for the experimental part:
Antimalarial activity. The K1 strain of Plasmodium falciparum was used in this study. This strain is known to be CQ resistant Parasites were maintained in continuous culture using the method of Jensen and Trager (Trager, W; Jenson, J. B. Human Malaria Parasites in Continuous Culture. Science, 1976, 193, 673-675). Cultures were grown in flasks containing human erythrocytes (2-5%) with parasitemia in the range of 1% to 10% suspended in RPMI 1640 medium supplemented with 25 mM HEPES and 32 mM NaHCO3, and 10% human serum (complete medium). Cultures were gassed with a mixture of 3% O2, 4% CO2 and 93% N2. Antimalarial activity was assessed with an adaption of the 48-h sensitivity assay of Desjardins et al. using [^3H]-hypoxanthine incorporation as an assessment of parasite growth (Desjardins, R. E.; Canfield, C. J.; Haynes, J. D.; Chulay, J. D. Quantitative Assessment of Antimalarial activity in vitro by Semi-automated Microdilution Technique. Antimicrob. Agents Chemother., 1979, 16, 710-718). Stock drug solutions were prepared in 100% dimethylsulphoxide (DMSO) and diluted to the appropriate concentration using complete medium. Assays were performed in sterile 96-well microtitre plates, each plate contained 200 μl of parasite culture (2% parasitemia, 0.5% haematocrit) with or without 10 μl drug dilutions. Each drug was tested in triplicate and parasite growth compared to control wells (which consituted 100% parasite growth). After 24-h incubation at 37° C., 0.5 μCi hypoxanthine was added to each well. Cultures were incubated for a further 24 h before they were harvested onto filter-mats, dried for 1 h at 55° C. and counted using a Wallac 1450 Microbeta Trilux Liquid scintillation and luminescence counter. IC50 values were calculated by interpolation of the probit transformation of the log dose-response curve.
What is called IC50 is the point on the concentration scale where inhibition reaches its midpoint. Regarding `CC1(CSc2ccccc2)COC2(CCC2)OO1` (stereo not drawn) [4e, 7-Methyl-7-phenylsulfanylmethyl-5,6,9-trioxa-spiro[3.5]nonane], the IC50 came to 314 nM.
Regarding `C[C@@H]1CC[C@H]2[C@@H](C)C(=O)O[C@@H]3O[C@@]4(C)CC[C@@H]1[C@]32OO4` [Artemisinin, reference compound], the half-inhibitory concentration (IC50) stood at 12 nM.
The same measure, in the same setting: with `CC1(CSc2ccccc2)COC2(OO1)C1CC3CC(C1)CC2C3` (stereo not drawn) [4f, Adamantyl Trioxane] the figure was 285 nM; with `CC1(CSc2ccccc2)COC2(CCCCCCCCCCC2)OO1` (stereo not drawn) [4j, 3-Methyl-3-phenylsulfanylmethyl-1,2,5-trioxa-spiro[5.11]heptadecane], 135 nM.
Consider `CC1(CS(=O)(=O)c2ccc(Cl)cc2)COC2(CCCCC2)OO1` (stereo not drawn) [8i, 3-(4-Chloro-benzenesulfonylmethyl)-3-methyl-1,2,5-trioxa-spiro[5.5]undecane], for which the IC50 worked out at 35 nM.
On to `CC1(CS(=O)(=O)c2ccccc2)COC2(OO1)C1CC3CC(C1)CC2C3` (stereo not drawn) [8f, Adamantyl sulfone trioxane], for which the IC50 came out at 329 nM.

Still in this data set, the particulars now being: Plasmodium falciparum, K1, Erythrocyte.
In the case of `CCN(CC)CCCC(C)Nc1ccnc2cc(Cl)ccc12` (stereo not drawn) [Chloroquine, reference compound], it took 210 nM to reach half-maximal inhibition (IC50).

System in a further data set: not given
Assay: not given
Conditions: not given
A word on the melting point: it is the temperature, or range, at which the solid turns liquid. `CC1(CSc2ccc(Cl)cc2)COC2(CCCCCCCCCCC2)OO1` (stereo not drawn) [4k, 3-(4-Chloro-phenylsulfanylmethyl)-3-methyl-1,2,5-trioxa-spiro[5.11]heptadecane] had a melting point of 93 to 94 °C.
Same read-out and setting: the figure for `CC1(CSc2ccc(Cl)cc2)COC2(CCCC2)OO1` (stereo not drawn) [4d, 8-(4-Chloro-phenylsulfanylmethyl)-8-methyl-6,7,10 trioxa-spiro[4.5]decane] is 69.8 to 70 °C.
For the molecule `CC1(CSc2ccccc2)COC2(CCCCC2)OO1` (stereo not drawn) [4c, 3-Methyl-3-phenylsulfanylmethyl-1,2,5-trioxa-spiro[5.5]undecane], the melting point is 45 to 46 °C.
Turning to `CC1(CS(=O)(=O)c2ccccc2)COC2(CCCCCCCCCCC2)OO1` (stereo not drawn) [8k, 3-Benzenesulfonylmethyl-3-methyl-1,2,5-trioxa-spiro[5.11]heptadecane], the melting point lay within 123 to 124 °C.
Same read-out and setting: with `CC1(CS(=O)(=O)c2ccccc2)COC2(CCCCC2)OO1` (stereo not drawn) [8c, 3-Benzenesulfonylmethyl-3-methyl-1,2,5-trioxa-spiro[5.5]undecane] the figure was 88 to 89 °C; with `CC1(CSc2ccccc2)COC2(CCCCCCCCCCC2)OO1` (stereo not drawn) [4j, 3-Methyl-3-phenylsulfanylmethyl-1,2,5-trioxa-spiro[5.11]heptadecane], 89 °C; with `CC1(CS(=O)(=O)c2ccc(Cl)cc2)COC2(CCCCC2)OO1` (stereo not drawn) [8i, 3-(4-Chloro-benzenesulfonylmethyl)-3-methyl-1,2,5-trioxa-spiro[5.5]undecane], 86 to 87 °C.
The same measure, in the same setting: with `CC1(CS(=O)(=O)c2ccccc2)COC2(OO1)C1CC3CC(C1)CC2C3` (stereo not drawn) [8f, Adamantyl sulfone trioxane] the figure was 126 to 127 °C; with `CC1(CS(=O)(=O)c2ccccc2)COC2(CCC2)OO1` (stereo not drawn) [8e, 7-Benzenesulfonylmethyl-7-methyl-5,6,9-trioxa-spiro[3.5]nonane], 96 to 97 °C.
Same read-out and setting: the figure for `CC1(CS(=O)(=O)c2ccccc2)COC2(CCC(C(C)(C)C)CC2)OO1` (stereo not drawn) [8g, 3-Benzenesulfonylmethyl-9-tert-butyl-3-methyl-1,2,5-trioxa-spiro[5.5]undecane] is 154 °C; for `CC1(CS(=O)(=O)c2ccccc2)COC2(CCC(=O)CC2)OO1` (stereo not drawn) [8h, 3-Benzenesulfonylmethyl-3-methyl-1,2,5-trioxa-spiro[5.5]undecan-9-one] it is 96 °C.
